Measurements reported in PMC11054271, “ABCG2 Transports the Flukicide Nitroxynil and Affects Its Biodistribution and Secretion into Milk” (Pharmaceutics, 2024).

Key:
bovine ABCG2 = target: T1, bovine ABCG2 (Bos taurus, UniProt Q4GZT4); test: Transepithelial transport assay in MDCK-II cells transduced with bovine ABCG2; type: in vitro ADME; details: cattle, MDCK-II bABCG2, nitroxynil 10 µM, no Ko143, read-out: Relative efflux transport ratio (BA/AB)
T1 construct: expressed in transfected cells; host or cells: MDCK-II (canine kidney) subclone generated by the authors' group
T1 sequence (Q4GZT4 1-655): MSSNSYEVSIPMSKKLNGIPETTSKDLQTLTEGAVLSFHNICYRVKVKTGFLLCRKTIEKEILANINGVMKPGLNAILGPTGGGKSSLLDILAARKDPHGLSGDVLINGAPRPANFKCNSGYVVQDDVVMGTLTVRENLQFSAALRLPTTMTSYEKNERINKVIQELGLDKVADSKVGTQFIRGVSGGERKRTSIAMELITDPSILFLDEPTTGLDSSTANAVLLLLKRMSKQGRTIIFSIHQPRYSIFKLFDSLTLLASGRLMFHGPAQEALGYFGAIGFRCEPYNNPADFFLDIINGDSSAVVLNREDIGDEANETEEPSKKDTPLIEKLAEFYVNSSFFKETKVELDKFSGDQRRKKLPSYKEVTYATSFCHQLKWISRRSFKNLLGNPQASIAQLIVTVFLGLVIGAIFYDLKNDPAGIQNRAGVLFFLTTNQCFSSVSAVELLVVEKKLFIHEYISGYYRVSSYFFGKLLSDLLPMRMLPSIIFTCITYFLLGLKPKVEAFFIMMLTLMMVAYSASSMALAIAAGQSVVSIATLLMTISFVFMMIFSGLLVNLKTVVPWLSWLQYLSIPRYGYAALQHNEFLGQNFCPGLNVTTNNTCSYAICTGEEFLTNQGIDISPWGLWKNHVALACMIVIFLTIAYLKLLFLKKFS
Description: Parental Madin–Darby canine kidney epithelial cells (MDCK–II) and their subclones transduced with murine (mAbcg2) and human (hABCG2) variants of ABCG2 were kindly provided by Dr. A. H. Schinkel (Netherlands Cancer Institute). Transduced MDCK–II cells with the ovine (oABCG2) and bovine (bABCG2) variants were previously generated by our group. Cells were cultured as described elsewhere.
Transepithelial transport assays were carried out as previously described with minor variations, using Hanks’ balanced salt solution (Sigma-Aldrich) supplemented with HEPES (25 mM), with or without Ko143 (1 μM), and containing or not nitroxynil 10 μM. […] At the end of the experiment, confluence of the monolayer was measured with the previously described Lucifer Yellow permeability test, with minor modifications. The appearance of nitroxynil in the opposite side of the well was measured by HPLC as later described. Active transport was expressed as relative efflux transport ratio (apically directed transport percentage divided by the basolaterally directed translocation percentage) at 4 h and referred to the initial concentration. […]
(§1) Waters 2695 separation module and Waters 2998 UV photodiode array detector set at 270 nm were used for samples analysis. […] Limit of detection (LOD) and quantification (LOQ) were calculated as previously described. […]

murine Abcg2 = test: Plasma pharmacokinetics in wild-type and Abcg2−/− male mice; type: in vivo; details: 10 mg/kg s.c.
Description: All in vivo experiments were carried out using wild-type and Abcg2^−/− mice aged between 8 and 17 weeks, all of >99% FVB/N genetic background, generated and gently supplied by A. H. Schinkel (Netherlands Cancer Institute). Mice were housed and handled complying with institutional and ARRIVE guidelines and European legislation (EU Directive 2010/63/EU for animal experiments). Additionally, experimental procedures were approved by the Animal Care and Use Committee of the University of León and the Junta de Castilla y León (ULE_011_2019).
For pharmacokinetic experiments, a single dose of nitroxynil at 10 mg/kg was administered subcutaneously to wild-type and Abcg2^−/− male mice (n = 4–5, for each time point). Distomicide® (250 mg/mL) commercial solution was dissolved in saline (sodium chloride 0.9%) and dosed at 200 μL per 30 g body weight. Blood samples were collected at different time points (0.5, 3, 4.5, 6, 24, 48 and 96 h) and heparinized blood samples were centrifugated for 15 min at 3000× g. […]
Plasma, milk and tissue samples from each animal were individually processed and analyzed without pooling, while samples from transport assays were not processed. […]
as §1

## N#Cc1cc(I)c(O)c([N+](=O)[O-])c1 [nitroxynil]
Bovine ABCG2
  efflux ratio at 4 h, 10 µM: 3.25 ± 0.14
Murine Abcg2; FVB/N, mouse, plasma, sc, Abcg2−/− male mice, 0.5-96 h
  AUC: 3530 ± 130 µg·h/mL
Murine Abcg2; both type of mice (wild-type and Abcg2−/−), male
  Time of Cmax (sampling point): 3 h
